According to patent US20230348493A1, “COMPOUND FOR ADJUSTING ACTIVITY OF NMDA RECEPTOR, AND PHARMACEUTICAL COMPOSITION AND USE THEREOF” (BEIJING GREATWAY PHARMACEUTICAL TECHNOLOGY CO., LTD., priority 2020, published 2023):
Like-named read-outs stand apart in the source and are kept apart here.

Assays:
[1] = target: T1, NMDA receptor (Rattus norvegicus, UniProt P35439); assay: NMDA receptor agonistic properties in rat crude synaptosomal proteins (maximum [3H]-MK-801 binding vs 1 mM glycine); type: biochemical; conditions: maximum [3H]-MK-801 binding % relative to 1 mM glycine; 50 μM glutamic acid
T1 construct: After the rats were decapitated, the prefrontal cortex and hippocampus were rapidly separated on ice; from tissue; host or cells: SD male rat prefrontal cortex and hippocampus, crude synaptosomes
Method: (§1) After the rats were decapitated, the prefrontal cortex and hippocampus were rapidly separated on ice and weighed, 10 volumes of 50 mM Tris-HCl buffer (50 mM Tris-HCl, 5 mM MgCl2·6H2O, 1 mM EDTA, 0.5% (W/V) BSA, 1 mM PMSF, 0.32 M sucrose, pH 7.4) was added, and the mixture was homogenized for five times at 1500 revolutions/min with 30 s each time. A homogenate was centrifuged for 10 min at 1000×g, and a supernatant was taken and centrifuged for 10 min at 40,000×g, the precipitates were collected, re-suspended with volumes of Tris-HCl buffer, incubated at 37° C. for 10 min, and centrifuged for 10 min at 40,000×g, finally the precipitates were re-suspended with the above buffer, aliquoted and stored at −80° C. for later use.
(3) Detection of Influence of Tested Medicines on NMDA Receptor Agonistic Properties in Rat Crude Synaptosomal Proteins
100 μg of rat crude synaptosomal proteins was added to all tubes respectively. 50 μl of 5,7-dichlorokynurenic acid was added to a non-specific binding tube to achieve a final concentration of 10 μM. All tubes were preloaded with 50 μM of glutamic acid, and the materials were reacted for 15 min in advance. 20 μL of control drug at corresponding concentration was added to the test tube, and then reacted for 15 min. 1 mM glycine was added to the maximum reaction tube. A volume of 30 μl of labeled ligand [^3H]-MK-801 was successively added to all tubes to achieve a final concentration of 10 nM, and reacted for 15 min. All reaction tubes were supplemented to a volume of 500 μl with 50 mM Tris-HCl buffer (50 mM Tris-HCl, 5 mM MgCl2·6H2O, 1 mM EDTA, 0.5% (WN) BSA, 0.1% NaN3, pH 7.4). A reaction was carried out at 37° C. for 15 min. A type-49 glass fiber filter membrane was prepared and a sample was applied at the same time. The filter membrane was placed in a multi-head cell collector, and the reaction system was subjected to suction filtration under negative pressure and washed with an ice-cold 50 mM Tris-HCl buffer, 10 ml each time, for a total of 5 times. After suction drying, 1 ml of scintillation liquid was added to the filter membrane, the filter membrane was placed on the shaker for shaking for 1.5 h and then placed in the liquid scintillation counter on the next day to determine the radioactive intensity.
In an agonistic experiment, maximum [^3H]-MK-801 binding %=((tested compounds cpm−5,7 dichlorokynurenic acid cpm)/(1 mM glycine cpm−5,7 dichlorokynurenic acid cpm))×100%.

[2] = In-vivo metabolism (pharmacokinetic) study in rats, oral / tail intravenous; conditions: rat, plasma; for bioavailability: male, SD, oral 10 mg/kg vs intravenous 1 mg/kg, rats; for AUC(0-t) / Cmax: male SD rats
Method: The pharmacokinetic parameters such as exposure of plasma concentrations of the compounds of examples were evaluated by oral/tail intravenous injection model tests in rats in order to evaluate the in-vivo metabolic stability in rats.
The male SD rats weighing 200±20 g and being SPF grade were used in this experiment and purchased from SPF.
Preparation of intravenous solution: 1 mg of each tested medicine was weighed accurately, and a volume was metered to 5 mL with 0.9% sodium chloride solution to prepare 0.2 mg/mL. A dose volume was 1 mL for per 200 g of weight, and the dose was 1 mg for per 1 kg of weight based on the concentration conversion.
Preparation of intragastric solution: 10 mg of each tested medicine was accurately weighed, and a volume was metered to 10 mL with 0.9% sodium chloride solution to prepare 1 mg/mL of the solution. A dose volume was 2 mL for per 200 g of weight, and the dose was 10 mg for per 1 kg of weight based on the concentration conversion.
Rats were randomly divided into 8 groups, 6 rats were in each group, oral gavage administration and tail intravenous administration were performed according to the above doses. About 0.2 mL of orbital blood was collected before administration and at 2 min, 5 min, 15 min, 30 min, 1 h, 2 h, 3 h, 4 h and 6 h after administration, respectively, and centrifuged at 3000 rpm for 10 min at 4° C., and a supernatant was taken for LC/MS/MS determination. A DAS pharmacokinetics program was used to analyze the measured data and calculate the main pharmacokinetic parameters.

[3] = test system: rats; assay: Forced swimming test in rats; type: in vivo; conditions: Rattus norvegicus, Po
Method: Pharmacodynamic evaluation was performed by the forced swimming tests in rats. The experimental animals were male SD rats weighing 150 g-180 g and being SPF grade, and acclimated for one week after purchase, and then subjected to forced swimming tests, the rats need be fasted for 12 hours before the tests. The compounds of examples were dissolved with normal saline, and blank control group (normal saline) and example compound administration group were established. 8-10 rats were provided for each group. On the day before the tests, the rats were placed in a glass cylinder with a height of 40 cm, an inner diameter of 18 cm, and a water depth of 23 cm for pre-swimming for 15 min, and a water temperature was 28° C. After the pre-swimming the rats were removed, wiped with a dry cloth, and dried with an electrical heater, then returned to a rearing cage, and administered. A formal forced swimming test was performed on the next day for a total of 5 min. The accumulated immobility time within 5 min was recorded, and a second forced swimming test was performed on the seventh day; the criteria for determining immobility were that the rats stopped struggling in the water, were in a floating state, and had only slight limb movements to keep the head floating on the water surface. The results are shown in Table 4, and the experimental data were statistically analyzed by GraphPad Prism 5.0 software.

[4] = target: T1, NMDA receptor; assay: Inhibition of [3H]-MK-801 binding to rat crude synaptosomes (receptor ligand binding assay); conditions: affinity on NMDA; [3H]-MK-801 10 nM, rat prefrontal cortex and hippocampus crude synaptosomes; read-out: IC50
Method: The affinity of the tested compounds on NMDA receptor was researched by receptor ligand binding assays.
Ten SD male rats of SPF grade were ordered and acclimated for 7 days for future use.
as §1
(2) Detection of Inhibitory Function of Tested Medicines on Binding of Crude Synaptosomes in Rats to [^3H]-MK-801
50 μg of rat crude synaptosomal proteins was added to all tubes respectively. A volume of 50 μl of MK-801 (dizocilpine) was added to a non-specific binding tube to achieve a final concentration of 100 μM, and the materials were reacted for 15 min in advance. 20 μL of control drug at corresponding concentration was added to the test tube for reaction for 15 min. A volume of 30 μl of labeled ligand [^3H]-MK-801 was successively added to all tubes to achieve a final concentration of 10 nM. All reaction tubes were supplemented to a volume of 200 μl with 50 mM Tris-HCl buffer (50 mM Tris-HCl, 5 mM MgCl2·6H2O, 1 mM EDTA, 0.5% (WN) BSA, 0.1% NaN3, pH 7.4). A reaction was carried out at 37° C. for 10 min. A type-49 glass fiber filter membrane was prepared and a sample was applied at the same time. The filter membrane was placed in a multi-head cell collector, and a reaction system was subjected to suction filtration under negative pressure and washed with an ice-cold 50 mM Tris-HCl buffer, 10 ml each time, for a total of 5 times. After suction drying, 1 ml of scintillation liquid was added to the filter membrane, the filter membrane was placed on a shaker for shaking for 1.5 h and then placed in a liquid scintillation counter on the next day to determine the radioactive intensity.
GraphPad5.0 software was used to analyze the data, and the percentage of competitive inhibition was calculated through nonlinear fitting, wherein:
Percentage of competitive inhibition %=((total binding tube cpm−compound cpm)/(total binding tube cpm−non-specific binding tube cpm))×100%;
Specific binding amount=total binding amount−non-specific binding amount, wherein each binding site was determined by double compound tubes.

[5] = 48 h, Day 2, *P<0.05, **P<0.01 compared with the control group, read-out: Reduction percentage (%) of floating time, Day 2
[6] = 168 h, Day 7, *P<0.05, **P<0.01 compared with the control group, read-out: Reduction percentage (%) of floating time, Day 7

Row | Compound | Maximum agonistic efficacy (%) [1] [%] | bioavailability [2] [%] | AUC(0-t) ([2]; Intravenous injection, 1 mg/kg) [µg·h/mL] | Cmax ([2]; Intravenous injection, 1 mg/kg) [µg/mL] | AUC(0-t) ([2]; Oral, 10 mg/kg) [µg·h/mL] | Cmax ([2]; Oral, 10 mg/kg) [µg/mL] | inhibition in vivo at 0.1 mg/kg [3, 5] [%] | inhibition in vivo at 0.1 mg/kg [3, 6] [%] | IC50 [4] [nM]
1 | C[C@@H](O)[C@H](N)C(=O)N1CC2(C1)NCCS2.Cl [A-006] | 32 | 21.2 | 16.5 | 11.6 | 35 | 18.4 | 36.4 | 22.2 | 0.44
2 | CC(C)[C@H](N)C(=O)N1CC2(C1)NCCS2.Cl [A-008] | 35 |  |  |  |  |  | 54.9 | 57.3 | 0.89
3 | CC(C)C(=O)N1CCSC12CN(C(=O)[C@@H](N)[C@@H](C)O)C2.Cl [A-098] | 28 | 19.1 | 0.952 | 1.09 | 1.82 | 0.767 | 64.5 | 13.9 | 0.98
4 | Cl.N[C@@H](CO)C(=O)N1CC2(C1)NCCS2 [A-007] | 56 |  |  |  |  |  | 35.1 | 32.4 | 0.89
5 | CC(=O)N1CCSC12CCN(C(=O)[C@@H](N)[C@@H](C)O)CC2.Cl [A-082] | 45 | 19.6 | 6.85 | 18.3 | 13.4 | 5.58 |  |  | 0.89
6 | C[C@@H](O)[C@H](N)C(=O)N1CC2(C1)N[C@H](C(N)=O)CS2.Cl [A-258] | 21 | 27.3 | 4.18 | 3.63 | 11.4 | 4.91 | 74.8 | 56.4 | 0.33
7 | CC(=O)N1CCSC12CN(C(=O)[C@@H](N)[C@@H](C)O)C2.Cl [A-066] | 29 | 54.5 | 1.39 | 1.69 | 7.56 | 2.08 | 68 | 55.3 | 0.35
8 | C[C@@H](O)[C@H](N)C(=O)N1CCC2(C1)NCCS2.Cl (some centres unmarked) [A-020] | 42 |  |  |  |  |  | 51.8 | 59.3 | 0.25
9 | C[C@@H](O)[C@H](N)C(=O)N1CCC2(CC1)NCCS2.Cl [A-034] | 25 |  |  |  |  |  | 71.9 | 60.1 | 0.89
10 | CC(C)[C@H](N)C(=O)N1CC2(C1)N[C@H](C(N)=O)CS2.Cl [A-260] | 26 | 74.6 | 1.45 | 2.24 | 10.8 | 6.21 | 31.6 | 15.5 | 0.26
